In US8394834B2, “Pyrrolidines as NK3 receptor antagonists” (Hoffman-La Roche Inc., priority 2009, dated 2013):

target: T1, recombinant human NK3 receptor (Homo sapiens, UniProt P29371); assay: [3H]SR142801 competition binding assay; details: hNK3 receptor, membranes from HEK293 cells transiently expressing the receptor, [3H]SR142801 radioligand
T1 construct: expressed in transfected cells; host or cells: HEK293 cells (transient expression), membranes
T1 sequence (P29371 1-465): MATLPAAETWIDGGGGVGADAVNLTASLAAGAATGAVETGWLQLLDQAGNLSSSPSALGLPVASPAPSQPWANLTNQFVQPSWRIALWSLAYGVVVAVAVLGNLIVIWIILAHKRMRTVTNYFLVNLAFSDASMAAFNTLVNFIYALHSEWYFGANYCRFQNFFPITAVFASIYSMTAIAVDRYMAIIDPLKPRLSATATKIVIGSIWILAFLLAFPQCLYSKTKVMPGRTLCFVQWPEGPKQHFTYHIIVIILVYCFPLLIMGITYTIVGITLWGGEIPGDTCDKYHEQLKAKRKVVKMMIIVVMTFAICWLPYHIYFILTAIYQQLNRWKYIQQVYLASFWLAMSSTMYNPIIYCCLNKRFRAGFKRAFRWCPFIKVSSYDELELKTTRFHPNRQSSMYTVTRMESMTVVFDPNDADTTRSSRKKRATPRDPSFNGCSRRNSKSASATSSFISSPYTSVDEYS
Protocol: [^3H]SR142801 Competition Binding Assay
hNK3 receptor binding experiment were performed using [^3H]SR142801 (Catalog No. TRK1035, specific activity: 74.0 Ci/mmol, Amersham, GE Healthcare UK limited, Buckinghamshire, UK) and membrane isolated from HEK293 cells transiently expressing recombinant human NK3 receptor. After thawing, the membrane homogenates were centrifuged at 48,000×g for 10 min at 4° C., the pellets were resuspended in the 50 mM Tris-HCl, 4 mM MnCl2, 1 μM phosphoramidon, 0.1% BSA binding buffer at pH 7.4 to a final assay concentration of 5 μg protein/well. For inhibition experiments, membranes were incubated with [^3H]SR142801 at a concentration equal to KD value of radioligand and 10 concentrations of the inhibitory compound (0.0003-10 μM) (in a total reaction volume of 500 μl) for 75 min at room temperature (RT). At the end of the incubation, membranes were filtered onto unitfilter (96-well white microplate with bonded GF/C filter preincubated 1 h in 0.3% PEI+0.3% BSA, Packard BioScience, Meriden, Conn.) with a Filtermate 196 harvester (Packard BioScience) and washed 4 times with ice-cold 50 mM Tris-HCl, pH 7.4 buffer. Nonspecific binding was measured in the presence of 10 μM SB222200 for both radioligands. The radioactivity on the filter was counted (5 min) on a Packard Top-count microplate scintillation counter with quenching correction after addition of 45 μl of microscint 40 (Can berra Packard S. A., Zürich, Switzerland) and shaking for 1 h. Inhibition curves were fitted according to the Hill equation: […]), where nH=slope factor using Excel-fit 4 software (Microsoft). IC50 values were derived from the inhibition curve and the affinity constant (Ki) values were calculated using the Cheng-Prussoff equation Ki=IC50/(1+[L]/KD) where [L] is the concentration of radioligand and KD is its dissociation constant at the receptor, derived from the saturation isotherm. All experiments were performed in duplicate and the mean±standard error (SEM) of the individual Ki values was calculated.

Row | Compound | Ki
1 | C[C@H](Oc1ccc(Cl)cn1)[C@H]1CN(C(=O)C2CCN(c3ncccn3)CC2)C[C@@H]1c1ccc(Cl)cc1 [Example 3, {(3S,4R)-3-(4-Chloro-phenyl)-4-[1-((S)-5-chloro-pyridin-2-yloxy)-ethyl]-pyrrolidin-1-yl}-(1-pyrimidin-2-yl-piperidin-4-yl)-methanone] | 2.1 nM
2 | C[C@H](Oc1ccc(F)cn1)[C@H]1CN(C(=O)C2CCN(c3ccc(C#N)cn3)CC2)C[C@@H]1c1ccc(Cl)cc1 [Example 7, 4-{(3S,4R)-3-(4-Chloro-phenyl)-4-[1-((S)-5-fluoro-pyridin-2-yloxy)-ethyl]-pyrrolidine-1-carbonyl}-3,4,5,6-tetrahydro-2H-[1,2′]bipyridinyl-5′-carbonitrile] | 1.2 nM
3 | C[C@H](Oc1ccc(Cl)cn1)[C@H]1CN(C(=O)C2CCN(c3ccc(C#N)cn3)CC2)C[C@@H]1c1ccc(F)c(F)c1 [Example 20, 4-[(3R,4S)-3-[1-((S)-5-Chloro-pyridin-2-yloxy)-ethyl]-4-(3,4-difluoro-phenyl)-pyrrolidine-1-carbonyl]-3,4,5,6-tetrahydro-2H-[1,2′]bipyridinyl-5′-carbonitrile] | 0.9 nM
4 | COc1ccc(N2CCC(C(=O)N3C[C@H]([C@H](C)Oc4ccc(Cl)cn4)[C@@H](c4ccc(Cl)cc4)C3)CC2)nn1 [Example 14, {(3S,4R)-3-(4-Chloro-phenyl)-4-[1-((S)-5-chloro-pyridin-2-yloxy)-ethyl]-pyrrolidin-1-yl}-[1-(6-methoxy-pyridazin-3-yl)-piperidin-4-yl]-methanone] | 1.2 nM
5 | C[C@H](Oc1ccc(Cl)cn1)[C@H]1CN(C(=O)C2CCN(c3ncccc3C#N)CC2)C[C@@H]1c1ccc(Cl)cc1 [Example 10, 4-{(3S,4R)-3-(4-Chloro-phenyl)-4-[1-((S)-5-chloro-pyridin-2-yloxy)-ethyl]-pyrrolidine-1-carbonyl}-3,4,5,6-tetrahydro-2H-[1,2′]bipyridinyl-3′-carbonitrile] | 6.1 nM
6 | C[C@H](Oc1ccc(Cl)cn1)[C@H]1CN(C(=O)C2CCN(c3ccncn3)CC2)C[C@@H]1c1ccc(Cl)cc1 [Example 8, {(3S,4R)-3-(4-Chloro-phenyl)-4-[1-((S)-5-chloro-pyridin-2-yloxy)-ethyl]pyrrolidin-1-yl}-(1-pyrimidin-4-yl-piperidin-4-yl)-methanone] | 1.3 nM
7 | C[C@H](Oc1ccc(C#N)cn1)[C@H]1CN(C(=O)C2CCN(c3ccc(C#N)cn3)CC2)C[C@@H]1c1ccc(F)c(F)c1 [Example 19, 4-[(3R,48)-3-[1-((S)-5-Cyano-pyridin-2-yloxy)-ethyl]-4-(3,4-difluoro-phenyl)-pyrrolidine-1-carbonyl]-3,4,5,6-tetrahydro-2H-[1,2′]bipyridinyl-5′-carbonitrile] | 1.2 nM
8 | Cc1ccc(N2CCC(C(=O)N3C[C@H]([C@H](C)Oc4ccc(F)cn4)[C@@H](c4ccc(Cl)cc4)C3)CC2)nn1 [Example 12, {(3S,4R)-3-(4-Chloro-phenyl)-4-[1-((S)-5-fluoro-pyridin-2-yloxy)-ethyl]-pyrrolidin-1-yl}-[1-(6-methyl-pyridazin-3-yl)-piperidin-4-yl]-methanone] | 2.1 nM
9 | C[C@H](Oc1ccc(F)cn1)[C@H]1CN(C(=O)C2CCN(c3ccc(C#N)nn3)CC2)C[C@@H]1c1ccc(Cl)cc1 [Example 16, 6-(4-{(3S,4R)-3-(4-Chloro-phenyl)-4-[1-((S)-5-fluoro-pyridin-2-yloxy)-ethyl]-pyrrolidine-1-carbonyl}-piperidin-1-yl)-pyridazine-3-carbonitrile] | 0.8 nM
10 | Cc1nnc(N2CCC(C(=O)N3C[C@H]([C@H](C)Oc4ccc(Cl)cn4)[C@@H](c4ccc(Cl)cc4)C3)CC2)o1 [Example 18, {(3S,4R)-3-(4-Chloro-phenyl)-4-[1-((S)-5-chloro-pyridin-2-yloxy)-ethyl]-pyrrolidin-1-yl}-[1-(5-methyl-[1,3,4]oxadiazol-2-yl)-piperidin-4-yl]-methanone] | 3.1 nM
11 | C[C@H](Oc1ccc(Cl)cn1)[C@H]1CN(C(=O)C2CCN(c3cnccn3)CC2)C[C@@H]1c1ccc(Cl)cc1 [Example 2, {(3S,4R)-3-(4-Chloro-phenyl)-4-[1-((S)-5-chloro-pyridin-2-yloxy)-ethyl]-pyrrolidin-1-yl}-(1-pyrazin-2-yl-piperidin-4-yl)-methanone] | 1.9 nM
12 | Cc1ccc(N2CCC(C(=O)N3C[C@H]([C@H](C)Oc4ccc(C#N)cn4)[C@@H](c4ccc(F)c(F)c4)C3)CC2)nn1 [Example 21, 6-((S)-1-{(3R,4S)-4-(3,4-Difluoro-phenyl)-1-[1-(6-methyl-pyridazin-3-yl)-piperidine-4-carbonyl]-pyrrolidin-3-yl}-ethoxy)-nicotinonitrile] | 2.8 nM

Further lines, results first:

Row | Ki | Compound
13 | 0.5 nM | COc1ccc(N2CCC(C(=O)N3C[C@H]([C@H](C)Oc4ccc(Cl)cn4)[C@@H](c4ccc(Cl)cc4)C3)CC2)cn1 [Example 15, {(3S,4R)-3-(4-Chloro-phenyl)-4-[1-((S)-5-chloro-pyridin-2-yloxy)-ethyl]-pyrrolidin-1-yl}-(6′-methoxy-3,4,5,6-tetrahydro-2H-[1,3,′]bipyridinyl-4-yl)-methanone]
14 | 0.5 nM | CC(=O)c1ccc(N2CCC(C(=O)N3C[C@H]([C@H](C)Oc4ccc(Cl)cn4)[C@@H](c4ccc(Cl)cc4)C3)CC2)nc1 [Example 9, 1-(4-{(3S,4R)-3-(4-Chloro-phenyl)-4-[1-((S)-5-chloro-pyridin-2-yloxy)-ethyl]-pyrrolidine-1-carbonyl}-3,4,5,6-tetrahydro-2H-[1,2′]bipyridinyl-5′-yl)-ethanone]
15 | 0.7 nM | COc1ccc(N2CCC(C(=O)N3C[C@H]([C@H](C)Oc4ccc(Cl)cn4)[C@@H](c4ccc(Cl)cc4)C3)CC2)nc1 [Example 13, {(3S,4R)-3-(4-Chloro-phenyl)-4-[1-((S)-5-chloro-pyridin-2-yloxy)-ethyl]-pyrrolidin-1-yl}-(5′-methoxy-3,4,5,6-tetrahydro-2H-[1,2′]bipyridinyl-4-yl)-methanone]
16 | 0.5 nM | C[C@H](Oc1ccc(Cl)cn1)[C@H]1CN(C(=O)C2CCN(c3cc(C#N)ccn3)CC2)C[C@@H]1c1ccc(Cl)cc1 [Example 11, 4-{(3S,4R)-3-(4-Chloro-phenyl)-4-[1-((S)-5-chloro-pyridin-2-yloxy)-ethyl]-pyrrolidine-1-carbonyl}-3,4,5,6-tetrahydro-2H-[1,2′]bipyridinyl-4′-carbonitrile]
17 | 0.4 nM | C[C@H](Oc1ccc(Cl)cn1)[C@H]1CN(C(=O)C2CCN(c3ccc(C#N)cn3)CC2)C[C@@H]1c1ccc(Cl)cc1 [Example 1, 4-{(3S,4R)-3-(4-Chloro-phenyl)-4-[1-((S)-5-chloro-pyridin-2-yloxy)-ethyl]-pyrrolidine-1-carbonyl}-3,4,5,6-tetrahydro-2H-[1,2′]bipyridinyl-5′-carbonitrile]
18 | 0.8 nM | C[C@H](Oc1ccc(Cl)cn1)[C@H]1CN(C(=O)C2CCN(c3ccc(C(F)(F)F)cn3)CC2)C[C@@H]1c1ccc(Cl)cc1 [Example 4, {(3S,4R)-3-(4-Chloro-phenyl)-4-[1-((S)-5-chloro-pyridin-2-yloxy)-ethyl]-pyrrolidin-1-yl}-(5′-trifluoromethyl-3,4,5,6-tetrahydro-2H-[1,2′]bipyridinyl-4-yl)-methanone]
19 | 0.5 nM | C[C@H](Oc1ccc(Cl)cn1)[C@H]1CN(C(=O)C2CCN(c3ccc(C#N)nn3)CC2)C[C@@H]1c1ccc(Cl)cc1 [Example 6, 6-(4-{(3S,4R)-3-(4-Chloro-phenyl)-4-[1-((S)-5-chloro-pyridin-2-yloxy)-ethyl]-pyrrolidine-1-carbonyl}-piperidin-1-yl)-pyridazine-3-carbonitrile]
20 | 0.4 nM | CC(=O)c1ccc(N2CCC(C(=O)N3C[C@H]([C@H](C)Oc4ccc(Cl)cn4)[C@@H](c4ccc(Cl)cc4)C3)CC2)cc1 [Example 5, 1-[4-(4-{(3S,4R)-3-(4-Chloro-phenyl)-4-[1-((S)-5-chloro-pyridin-2-yloxy)-ethyl]-pyrrolidine-1-carbonyl}-piperidin-1-yl)-phenyl]-ethanone]
